Reference: US5688826A, “Excitatory amino acid derivatives” (Eli Lilly and Company, priority 1996, dated 1997)

Key:
[1] = test system: metabotropic glutamate receptors; experiment: displacement of 1S,3R-ACPD-sensitive [3H]glutamate binding to rat brain cell membranes; details: crude membranes of rat forebrain
Procedure: The binding of [^3 H]glutamate was conducted with crude membranes of rat forebrain as described by Schoepp and True. Schoepp and True, Neuroscience Lett., 145, 100-104 (1992) and Wright et al., J. Neurochemistry 63:938-945 (1994).

[2] = test system: cAMP-linked metabotropic glutamate receptors; experiment: agonism of glutamate at cAMP-linked metabotropic glutamate receptors; assay type: cell-based; details: result in words only

| SMILES | IC50 [1] [nM] | agonist activity at cAMP-linked metabotropic glutamate receptors [2] |
| --- | --- | --- |
| NC1(C(=O)O)COC2C(C(=O)O)C21 (stereo not drawn) [Example 1, 1SR,4SR,5RS,6SR-4-Amino-2-Oxabicyclo[3.1.0]hexane-4,6-dicarboxylic Acid] | 55 | potent agonists |
| NC1(C(=O)O)CSC2C(C(=O)O)C21 (stereo not drawn) [Example 4, 1SR,4RS,5RS,6RS-4-Amino-2-Thiabicyclo[3.1.0]hexane-4,6-dicarboxylic Acid] | – | potent agonists |
| NC1(C(=O)O)COC2C(C(=O)O)C21 (single isomer, unassigned) [Example 2(g)] | – | potent agonists |
